# Assay results reported in PubChem BioAssay (NCI).
#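 Results reflect a 48-hour exposure of cells in 96-well plates to compound at five concentrations. Abbreviation: GI50, concentration required for 50% inhibition of growth. TGI marks complete inhibition of growth.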
# Key:
# Assay in all cases: NCI tumour cell line growth inhibition, 48 h
# HT29 colon = test system: HT29 colon
# MALME-3M melanoma = test system: MALME-3M melanoma
# OVCAR-3 ovarian = test system: OVCAR-3 ovarian
# OVCAR-4 ovarian = test system: OVCAR-4 ovarian
# SF-268 CNS = test system: SF-268 CNS
# SK-MEL-28 melanoma = test system: SK-MEL-28 melanoma
# SK-MEL-5 melanoma = test system: SK-MEL-5 melanoma
# SK-OV-3 ovarian = test system: SK-OV-3 ovarian
# SW-620 colon = test system: SW-620 colon
# UACC-62 melanoma = test system: UACC-62 melanoma
Structure (SMILES),GI50 (HT29 colon) [µM],TGI (HT29 colon) [µM],GI50 (MALME-3M melanoma) [µM],TGI (MALME-3M melanoma) [µM],GI50 (OVCAR-3 ovarian) [µM],TGI (OVCAR-3 ovarian) [µM],GI50 (OVCAR-4 ovarian) [µM],TGI (OVCAR-4 ovarian) [µM],GI50 (SF-268 CNS) [µM],TGI (SF-268 CNS) [µM],GI50 (SK-MEL-28 melanoma) [µM],TGI (SK-MEL-28 melanoma) [µM],GI50 (SK-MEL-5 melanoma) [µM],TGI (SK-MEL-5 melanoma) [µM],GI50 (SK-OV-3 ovarian) [µM],TGI (SK-OV-3 ovarian) [µM],GI50 (SW-620 colon) [µM],TGI (SW-620 colon) [µM],GI50 (UACC-62 melanoma) [µM],TGI (UACC-62 melanoma) [µM]
Cn1cccc1-c1cc(-c2cccs2)nc(N)c1C#N,> 100,> 100,> 100,> 100,> 100,> 100,> 100,> 100,> 100,> 100,> 100,> 100,> 100,> 100,> 100,> 100,> 100,> 100,87,> 100
N#Cc1c(N2CCCC2)[nH]c(=O)c(C(c2c(Cl)cccc2Cl)c2c(O)c(C#N)c(N3CCCC3)[nH]c2=O)c1O,15.8,35.5,19.3,36.4,3.33,14.3,17.5,33.7,11.9,29.3,5.34,40.6,0.409,13.5,0.0847,21,3.91,18.4,4.71,20.5
C/C(=N\NS(=O)(=O)c1ccccc1)c1ccc(Cl)c(Cl)c1,,> 100,,> 100,,> 100,,> 100,,> 100,,> 100,,> 100,,> 100,,> 100,,> 100
CCCCCCCCCCCC(=O)OCC1OC(n2cc(F)c(=O)[nH]c2=O)C(NC(=O)OCc2ccccc2)C(OC(=O)CCCCCCCCCCC)C1O (stereo not drawn),,> 100,,> 100,,> 100,,> 100,,> 100,,> 100,,> 100,,> 100,,> 100,,> 100
Cn1cc(-c2ccc3occ(-c4cccc(-c5ccncc5)c4)c3n2)cn1,0.356,> 100,1.19,> 100,0.479,> 100,2.7,> 100,1.46,> 100,1.77,> 100,0.406,1.63,1.82,> 100,0.435,> 100,0.478,> 100
COC(=O)[C@H](C[C@H](Cc1ccccc1)NC(=O)c1csc([C@@H](C[C@H](C(C)C)N(C)C(=O)[C@@H](NC(=O)[C@H]2CCCCN2C)C(C)C)OC(C)=O)n1)NC(=O)OCc1ccccc1,< 0.0009,,< 0.0009,2.67,< 0.0009,,0.0124,> 9,0.000974,> 9,0.0025,2.5,< 0.0009,0.0182,0.00199,> 9,< 0.0009,> 9,< 0.0009,> 9
CC(C)c1cc(-c2n[nH]c(=O)n2-c2ccc3c(ccn3C)c2)c(O)cc1O,0.0423,12.5,< 0.0167,< 0.031,< 0.0237,19.4,13,> 86.1,9.69,38.9,< 0.0215,17.2,< 0.0207,13.9,< 0.0132,> 43.5,< 0.013,24.5,< 0.0173,0.224
COc1ccc(OC)c(/C=C2\SC(=S)NC2=O)c1,42.1,> 100,34.6,92.8,36.7,> 100,62.9,> 100,31.4,> 100,42.4,> 100,21.2,49.2,33.1,> 100,60.2,> 100,17.7,53.4
CCN(CC)c1ccc(C(=O)c2ccccc2C(=O)O)c(O)c1,,> 100,,> 100,,> 100,,> 100,,> 100,,> 100,,> 100,,> 100,,> 100,,> 100
COC(=O)[C@@]1(C)CC[C@]2(C)CC[C@]3(C)C4=CC=C5C(=CC(=O)C(O)=C5C)[C@]4(C)[C@@H](O)C[C@@]3(C)[C@@H]2C1,10.8,23.1,4.91,16.2,8.63,18.5,8.38,19.7,9.62,22.2,9.43,19.7,16.5,32.6,19.1,42.2,9.27,20.2,8.59,18.9
COc1ccc2nc(-c3cccs3)cc(C(O)CN3CCSCC3)c2c1 (stereo not drawn),,74,,35,,> 100,,> 100,,> 100,,77.4,,37.6,,> 100,,93.7,,38.6
CN(C)CCCNC(CC#N)CCC#N (stereo not drawn),,> 10,,> 10,,> 10,,> 10,,> 10,,> 10,,> 10,,> 10,,> 10,,> 10
CCOC(=O)c1cc(NS(=O)(=O)c2ccccc2)cc(C(=O)OCC)c1,> 100,> 100,> 100,> 100,> 100,> 100,> 100,> 100,> 100,> 100,> 100,> 100,> 100,> 100,> 100,> 100,> 100,> 100,> 100,> 100
COC(=O)C(=O)C1(CCC(C)=O)c2ccccc2-c2c(C)ccc(C)c21 (stereo not drawn),,> 100,,> 100,,> 100,,> 100,,> 100,,> 100,,65.2,,> 100,,> 100,,> 100
CC1SC2=NC3=C(c4ccccc4C3=O)C(c3ccc(F)cc3)N2C1=O (stereo not drawn),,> 100,,> 100,,> 100,,> 100,,> 100,,> 100,,> 100,,> 100,,> 100,,> 100
COc1ccc2c(c1)cn1c3ccc(O)cc3nc(N)c21,1.45,4.31,0.0714,23.2,0.0757,2.39,1.57,15.7,0.238,7.24,0.126,5.31,0.0762,3.95,0.324,6.48,0.0388,5.82,0.09,20
